The target of experiment [1] is T1, IRAK4 (Homo sapiens, UniProt Q9NWZ3).
T1 construct: endogenous in cells; host or cells: Karpas299
T1 sequence (Q9NWZ3 1-460): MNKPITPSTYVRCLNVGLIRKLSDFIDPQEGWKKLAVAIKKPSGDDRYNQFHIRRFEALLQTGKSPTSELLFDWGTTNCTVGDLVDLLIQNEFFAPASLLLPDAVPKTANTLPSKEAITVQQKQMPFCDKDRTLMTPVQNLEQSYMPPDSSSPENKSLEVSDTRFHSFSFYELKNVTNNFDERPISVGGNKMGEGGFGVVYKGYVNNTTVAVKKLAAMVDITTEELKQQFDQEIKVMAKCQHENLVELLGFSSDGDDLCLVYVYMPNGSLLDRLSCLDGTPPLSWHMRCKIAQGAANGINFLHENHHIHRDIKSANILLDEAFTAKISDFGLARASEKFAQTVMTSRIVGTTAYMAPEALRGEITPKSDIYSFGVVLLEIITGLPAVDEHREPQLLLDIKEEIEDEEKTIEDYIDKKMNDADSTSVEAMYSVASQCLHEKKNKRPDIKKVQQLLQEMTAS
Kind of experiment: IRAK4 Degradation Assay (Karpas299, HTRF/TR-FRET). It is filed as cell-based. The conditions noted are these: Karpas-299 cells, 24 h treatment; for Dmax: maximum percentage of degradation, read-out: IRAK4 in Karpas-299 (24 h) Dmax (%); for DC50: read-out: IRAK4 in Karpas-299 (24 h) DC50. The method in brief: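 Compound potency as DC50 (IC50) came from four-parameter fits of percent IRAK4 degradation. IRAK4 was measured by HTRF (665/620 nm) in lysates of Karpas299 cells seeded at 0.2 million per well. Cells had been treated with compound dilutions for 5 or 24 h.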

Experiment [2] deals with T1, IRAK4. Description: IRAK4 Degradation Assay with Human Serum (Karpas299, HTRF/TR-FRET). Format: cell-based. Particulars: Karpas-299 in human serum, 24 hrs treatment; for DC50: read-out: IRAK4 degradtion with human serum assay DC50; for Dmax: read-out: IRAK4 degradtion with human serum assay Dmax (%). As for the experimental part:
IRAK4 degradation was measured using a TR-FRET-based method (Degorce, François, et al. Current chemical genomics. 2009, 3: 22). Karpas299 resuspended in Human serum AB (GEMINI, 100-512) were seeded into 96-well plates at the density of 0.2 million cells per well and then treated with a series dilution of compounds. After 24 hrs treatment, cells were pelleted via centrifugation and washed with PBS, add 40 μL lysis buffer (Cisbio) to each well after removal of the supernatant. Plates were then incubated at room temperature with shaking for 30 minutes. A total of 16 μL of cell lysates from each well of a 96-well plate was transferred to a 384-well white assay plate. IRAK4 level was quantitated using the HTRF kit as described by the manufacturer manual (Cisbio). FRET signals were measured using a PHERAstar FSX reader (BMG Labtech).
After treatment, add HTRF lysis buffer to each well; seal the plate and incubate 1 hour at room temperature on a plate shaker; Once the cells are lysed, 16 μL of cell lysate are transferred to a PE 384-well HTRF detection plate; 4 μL of pre-mixed HTRF antibodies are added to each well; Cover the plate with a plate sealer, spin 1000 rpm for 1 min, Incubate overnight at room temperature; Read on BMG PheraStar with HTRF protocol (337 nm-665 nm-620 nm).
The inhibition (degradation) percentage of the compound was calculated by the following equation: […]
The IC50 (DC50) value of a compound can be obtained by fitting the following equation
Wherein, X and Y are known values, and IC50, Hillslope, Top and Bottom are the parameters obtained by fitting with software. Y is the inhibition percentage (calculated from the equation), X is the concentration of the compound; IC50 is the concentration of the compound when the […] is reached. The smaller the IC50 value is, the stronger the inhibitory ability of the compound is. Vice versa, the higher the IC50 value is, the weaker the ability the inhibitory ability of the compound is; Hillslope represents the slope of the fitted curve, generally around 1 *; Bottom represents the minimum value of the curve obtained by data fitting, which is generally 0%±20%; Top represents the maximum value of the curve obtained by data fitting, which is generally 100%±20%. The experimental data were fitted by calculating and analyzing with Dotmatics data analysis software.

For orientation: Dmax means the greatest extent of degradation seen. As usually defined, the DC50 is the concentration at which degradation of the target reaches its halfway point.

Turning to `COc1cc(N2CC(C(=O)N3CCN([C@H]4CC[C@H](n5cc6cc(NC(=O)c7ccc8cc(C#N)cnn78)c(C(C)(C)O)cc6n5)CC4)CC3)C2)c(F)cc1N1CCC(=O)NC1=O` [Example 258, 3-cyano-N-(2-((1r,4r)-4-(4-(1-(4-(2,4-dioxotetrahydropyrimidin-1(2H)-yl)-2-fluoro-5-methoxyphenyl)azetidine-3-carbonyl)piperazin-1-yl)cyclohexyl)-6-(2-hydroxypropan-2-yl)-2H-indazol-5-yl)pyrrolo[1,2-b]pyridazine-7-carboxamide], the Dmax at IRAK4 [1] amounted to 96%; at IRAK4 [2] it was 97%. Moreover, the DC50 at IRAK4 [1] amounted to 2.6 nM; at IRAK4 [2], 21 nM.

For `CC(C)(O)c1cc2nn([C@H]3CC[C@H](N4CCN(C(=O)[C@@H]5CCN(c6ccc(N7CCC(=O)NC7=O)cc6)C5)CC4)CC3)cc2cc1NC(=O)c1ccc2cc(C#N)cnn12` [Example 263, 3-cyano-N-(2-((1R,4r)-4-(4-((R)-1-(4-(2,4-dioxotetrahydropyrimidin-1(2H)-yl)phenyl)pyrrolidine-3-carbonyl)piperazin-1-yl)cyclohexyl)-6-(2-hydroxypropan-2-yl)-2H-indazol-5-yl)pyrrolo[1,2-b]pyridazine-7-carboxamide], on IRAK4 [1], the Dmax was 96% and the DC50 was found to be 2.6 nM. Further, at IRAK4 [2], the DC50 turned out to be 15 nM and the Dmax is 99%.

`CC(C)(O)c1cc2nn([C@H]3CC[C@H](N4CCN(C(=O)C5CN(c6ccc(N7CCC(=O)NC7=O)cc6)C5)CC4)CC3)cc2cc1NC(=O)c1ccc2cc(C#N)cnn12` [Example 265, 3-cyano-N-(2-((1r,4r)-4-(4-(1-(4-(2,4-dioxotetrahydropyrimidin-1(2H)-yl)phenyl)azetidine-3-carbonyl)piperazin-1-yl)cyclohexyl)-6-(2-hydroxypropan-2-yl)-2H-indazol-5-yl)pyrrolo[1,2-b]pyridazine-7-carboxamide]: on IRAK4 [1], the Dmax came to 97% and the half-maximal degradation concentration (DC50) was found to be 2.6 nM. For the same compound, at IRAK4 [2], the 50% degradation concentration (DC50) was determined as 21 nM and the Dmax is 99%.

In the case of `CC(C)(O)c1cc2nn([C@H]3CC[C@H](N4CCN([C@H]5C[C@@H](c6ccc(N[C@@H]7CCC(=O)NC7=O)cc6)C5)CC4)CC3)cc2cc1NC(=O)c1ccc2cc(C#N)cnn12` [Example 271, 3-cyano-N-(2-((1R,4r)-4-(4-((1S,3S)-3-(4-(((R)-2,6-dioxopiperidin-3-yl)amino)phenyl)cyclobutyl)piperazin-1-yl)cyclohexyl)-6-(2-hydroxypropan-2-yl)-2H-indazol-5-yl)pyrrolo[1,2-b]pyridazine-7-carboxamide], at IRAK4 [1], the Dmax worked out at 94% and the DC50 was found to be 4 nM. Moreover, at IRAK4 [2], the DC50 turned out to be 11 nM and the Dmax was 101%.

On to `CC(C)(O)c1cc2nn([C@H]3CC[C@H](N4CCN([C@H]5C[C@H](c6ccc(N[C@@H]7CCC(=O)NC7=O)cc6)C5)CC4)CC3)cc2cc1NC(=O)c1ccc2cc(C#N)cnn12` [Example 272, 3-cyano-N-(2-((1R,4r)-4-(4-((1R,3R)-3-(4-(((R)-2,6-dioxopiperidin-3-yl)amino)phenyl)cyclobutyl)piperazin-1-yl)cyclohexyl)-6-(2-hydroxypropan-2-yl)-2H-indazol-5-yl)pyrrolo[1,2-b]pyridazine-7-carboxamide], for which the values for the Dmax at IRAK4 [1] and on IRAK4 [2] were 96% and 94%, respectively. The values for the DC50 at IRAK4 [1] and on IRAK4 [2] were 6.7 nM and 19 nM, respectively.

Consider `CC(C)(O)c1cc2nn([C@H]3CC[C@H](N4CCN([C@H]5C[C@@H](c6ccc(N[C@H]7CCC(=O)NC7=O)cc6)C5)CC4)CC3)cc2cc1NC(=O)c1ccc2cc(C#N)cnn12` [Example 273, 3-cyano-N-(2-((1R,4r)-4-(4-((1R,3S)-3-(4-(((S)-2,6-dioxopiperidin-3-yl)amino)phenyl)cyclobutyl)piperazin-1-yl)cyclohexyl)-6-(2-hydroxypropan-2-yl)-2H-indazol-5-yl)pyrrolo[12-b]pyridazine-7-carboxamide], for which the Dmax amounted to 95% at IRAK4 [1] and 98% on IRAK4 [2]. Moreover, the DC50 on IRAK4 [1] is 5 nM; at IRAK4 [2] it was 9.3 nM.

In the case of `Cc1cc(N2CCC(N3CCN([C@H]4CC[C@H](n5cc6cc(NC(=O)c7ccc8cc(C#N)cnn78)c(C(C)(C)O)cc6n5)CC4)CC3)CC2)cc(C)c1[C@H]1CCC(=O)NC1=O` [Example 289, 3-cyano-N-(2-((1r,4r)-4-(4-(1-(4-((R)-2,6-dioxopiperidin-3-yl)-3,5-dimethylphenyl)piperidin-4-yl)piperazin-1-yl)cyclohexyl)-6-(2-hydroxypropan-2-yl)-2H-indazol-5-yl)pyrrolo[1,2-b]pyridazine-7-carboxamide], at IRAK4 [1], the Dmax amounted to 98% and the DC50 turned out to be 1.3 nM. Moreover, at IRAK4 [2], the 50% degradation concentration (DC50) stood at 19 nM and the Dmax was determined as 98%.

Regarding `CC(C)(O)c1cc2nn([C@H]3CC[C@H](N4CCN(C(=O)C5CCN(c6cc(F)c([C@H]7CCC(=O)NC7=O)c(F)c6)CC5)CC4)CC3)cc2cc1NC(=O)c1ccc2cc(C#N)cnn12` [Example 291], the Dmax on IRAK4 [1] and at IRAK4 [2] was 97% each time. Moreover, the DC50 on IRAK4 [1] amounted to 0.6 nM; at IRAK4 [2], 48 nM.

On to `CC(C)(O)c1cc2nn([C@H]3CC[C@H](N4CCN(C(=O)N5CCN(c6ccc(C7CCC(=O)NC7=O)cc6)CC5)CC4)CC3)cc2cc1NC(=O)c1ccc2cc(C#N)cnn12` (some centres unmarked) [Example 292, 3-cyano-N-(2-((1r,4r)-4-(4-(4-(4-(2,6-dioxopiperidin-3-yl)phenyl)piperazine-1-carbonyl)piperazin-1-yl)cyclohexyl)-6-(2-hydroxypropan-2-yl)-2H-indazol-5-yl)pyrrolo[1,2-b]pyridazine-7-carboxamide], for which the Dmax on IRAK4 [1] turned out to be 94%; at IRAK4 [2], 95%. The values for the 50% degradation concentration (DC50) on IRAK4 [1] and on IRAK4 [2] were 1.8 nM and 37 nM, respectively.

With `CC(C)(O)c1cc2nn([C@H]3CC[C@H](N4CCN(C5CCN(c6cc(F)c(N7CCC(=O)NC7=O)c(F)c6)CC5)CC4)CC3)cc2cc1NC(=O)c1ccc2cc(C#N)cnn12` [Example 293, 3-cyano-N-(2-((1r,4r)-4-(4-(1-(4-(2,4-dioxotetrahydropyrimidin-1(2H)-yl)-3,5-difluorophenyl)piperidin-4-yl)piperazin-1-yl)cyclohexyl)-6-(2-hydroxypropan-2-yl)-2H-indazol-5-yl)pyrrolo[1,2-b]pyridazine-7-carboxamide], on IRAK4 [1], the Dmax came to 96% and the 50% degradation concentration (DC50) is 9.4 nM. Also, on IRAK4 [2], the half-maximal degradation concentration (DC50) was determined as 9.4 nM and the Dmax was found to be 96%.

With `CC(C)(O)c1cc2nn([C@H]3CC[C@H](N4CCN([C@@H]5CCN(c6ccc(N7CCC(=O)NC7=O)cc6)C5)CC4)CC3)cc2cc1NC(=O)c1ccc2cc(C#N)cnn12` [Example 294, 3-cyano-N-(2-((1R,4r)-4-(4-((R)-1-(4-(2,4-dioxotetrahydropyrimidin-1(2H)-yl)phenyl)pyrrolidin-3-yl)piperazin-1-yl)cyclohexyl)-6-(2-hydroxypropan-2-yl)-2H-indazol-5-yl)pyrrolo[1,2-b]pyridazine-7-carboxamide], at IRAK4 [1], the Dmax was 97% and the half-maximal degradation concentration (DC50) is 3.4 nM. For the same compound, on IRAK4 [2], the DC50 was 14 nM and the Dmax worked out at 98%.
